Laboratory results from PubChem BioAssay (NCI).
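Grown in 96-well plates, cells were treated for 48 hours with each compound at five concentrations. Insufficient inhibition: endpoint recorded as highest concentration tested. TGI: concentration producing complete growth inhibition.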

Assays:
Test in all cases: NCI-60 cell line screen, 48 h
[1] = tested on: 786-0 renal
[2] = tested on: A498 renal
[3] = tested on: A549 NSCLC
[4] = tested on: ACHN renal
[5] = tested on: BT-549 breast
[6] = tested on: CAKI-1 renal
[7] = tested on: CCRF-CEM leukemia
[8] = tested on: COLO 205 colon
[9] = tested on: DU-145 prostate
[10] = tested on: EKVX NSCLC
[11] = tested on: HCC-2998 colon
[12] = tested on: HCT-116 colon
[13] = tested on: HCT-15 colon
[14] = tested on: HL-60(TB) leukemia
[15] = tested on: HOP-62 NSCLC
[16] = tested on: HOP-92 NSCLC
[17] = tested on: HS 578T breast
[18] = tested on: HT29 colon
[19] = tested on: IGROV1 ovarian
[20] = tested on: K-562 leukemia
[21] = tested on: KM12 colon
[22] = tested on: LOX IMVI melanoma
[23] = tested on: M14 melanoma
[24] = tested on: MALME-3M melanoma
[25] = tested on: MCF7 breast
[26] = tested on: MDA-MB-231 breast
[27] = tested on: MDA-MB-435
[28] = tested on: MDA-N
[29] = tested on: NCI-H23 lung
[30] = tested on: NCI-H522 lung
[31] = tested on: NCI/ADR-RES ovarian
[32] = tested on: OVCAR-3 ovarian
[33] = tested on: OVCAR-4 ovarian
[34] = tested on: OVCAR-5 ovarian
[35] = tested on: OVCAR-8 ovarian
[36] = tested on: PC-3 prostate
[37] = tested on: RPMI-8226 leukemia
[38] = tested on: RXF 393 renal
[39] = tested on: SF-268 CNS
[40] = tested on: SF-295 CNS
[41] = tested on: SF-539 CNS
[42] = tested on: SK-MEL-2 melanoma
[43] = tested on: SK-MEL-28 melanoma
[44] = tested on: SK-MEL-5 melanoma
[45] = tested on: SN12C renal
[46] = tested on: SNB-19 CNS
[47] = tested on: SNB-75 CNS
[48] = tested on: SW-620 colon
[49] = tested on: T-47D breast
[50] = tested on: TK-10 renal
[51] = tested on: U251 CNS
[52] = tested on: UACC-257 melanoma
[53] = tested on: UACC-62 melanoma
[54] = tested on: UO-31 renal
[55] = tested on: NCI-H226 lung
[56] = tested on: NCI-H460 lung
[57] = tested on: SK-OV-3 ovarian

Work on `O=C(NCCCN1CCN(CCCNC(=O)Nc2cccc3ccccc23)CC1)Nc1cccc2ccccc12` yielded a TGI [1] of 34.1 µM, a TGI [2] of 30.5 µM and a TGI [3] of 33.5 µM. It also gave a TGI [4] of 30.1 µM, a TGI [5] of 27.1 µM and a TGI [6] of 31.7 µM. For the same compound, the TGI [7] was 71.3 µM, the TGI [8] was 31.5 µM and the TGI [9] was 31.3 µM. For the same compound, the TGI [10] was 33.2 µM, the TGI [11] was 4.58 µM and the TGI [12] was 28 µM. The TGI [13] was 31.9 µM, the TGI [14] was 67.2 µM and the TGI [15] was 23.9 µM. For the same compound, the TGI [16] was 29.5 µM, the TGI [17] was 49.1 µM and the TGI [18] was 44.3 µM. The TGI [19] was 35.9 µM, the TGI [20] was greater than 100 µM and the TGI [21] was 43.3 µM. The TGI [22] was 20.7 µM, the TGI [23] was 29.9 µM and the TGI [24] was 11.8 µM. The TGI [25] was 36.4 µM, the TGI [26] was 8.21 µM and the TGI [27] was 31.4 µM. For the same compound, the TGI [28] was 30 µM, the TGI [29] was 33.6 µM and the TGI [30] was 33.4 µM. It also gave a TGI [31] greater than 100 µM, a TGI [32] of 26.5 µM and a TGI [33] of 44.1 µM. For the same compound, the TGI [34] was 28.3 µM, the TGI [35] was 38.7 µM and the TGI [36] was 21.5 µM. For the same compound, the TGI [37] was 40 µM, the TGI [38] was 27.6 µM and the TGI [39] was 38.8 µM. It also gave a TGI [40] of 27.4 µM, a TGI [41] of 34.3 µM and a TGI [42] of 34.2 µM. The TGI [43] was 28.7 µM, the TGI [44] was 30.2 µM and the TGI [45] was 30.7 µM. It also gave a TGI [46] of 48.4 µM, a TGI [47] of 36.5 µM and a TGI [48] of 22.9 µM. The TGI [49] was 32.1 µM, the TGI [50] was 28.4 µM and the TGI [51] was 18.9 µM. It also gave a TGI [52] of 25.9 µM, a TGI [53] of 11.9 µM and a TGI [54] of 31.2 µM.
`O=[N+]([O-])c1cc2c([N+](=O)[O-])cccc2o1` gave a TGI [1] of 5.92 µM, a TGI [2] of 43.5 µM and a TGI [3] greater than 100 µM. The TGI [4] was 10.6 µM, the TGI [5] was 31.9 µM and the TGI [6] was 5.77 µM. It also gave a TGI [7] of 5.05 µM, a TGI [8] of 16.5 µM and a TGI [9] of 42 µM. It also gave a TGI [10] of 6.25 µM, a TGI [11] of 35.7 µM and a TGI [12] greater than 100 µM. The TGI [13] was 23 µM, the TGI [15] was 37.2 µM and the TGI [16] was 36 µM. The TGI [17] was 43.8 µM, the TGI [18] was 66.6 µM and the TGI [21] was 34.5 µM. It also gave a TGI [22] greater than 100 µM, a TGI [23] of 24.9 µM and a TGI [24] of 30.1 µM. The TGI [25] was 13.8 µM, the TGI [26] was 27.6 µM and the TGI [27] was 53.8 µM. For the same compound, the TGI [28] was 23.6 µM, the TGI [55] was 30.4 µM and the TGI [29] was 37.6 µM. For the same compound, the TGI [56] was greater than 100 µM, the TGI [30] was 1.92 µM and the TGI [31] was 32.6 µM. It also gave a TGI [32] of 21.8 µM, a TGI [33] of 3.63 µM and a TGI [35] of 38.8 µM. It also gave a TGI [36] of 36.1 µM, a TGI [37] of 11.4 µM and a TGI [38] of 20 µM. It also gave a TGI [39] of 31.1 µM, a TGI [40] of 42.4 µM and a TGI [41] of 6.67 µM. It also gave a TGI [42] of 25.4 µM, a TGI [43] of 16.8 µM and a TGI [44] of 33.2 µM. The TGI [57] was 31.3 µM, the TGI [45] was 27.9 µM and the TGI [46] was 36 µM. It also gave a TGI [48] of 7.99 µM, a TGI [49] greater than 100 µM and a TGI [50] of 23.8 µM. It also gave a TGI [51] greater than 100 µM, a TGI [52] of 21.8 µM and a TGI [53] of 27.7 µM. It also gave a TGI [54] of 3.98 µM.
